# Test results: ChEMBL document CHEMBL6074686 (Eur J Med Chem, 2025)
# pIC50: −log10 of the molar value. The source made the active and inactive calls. The calls are words filed in the database; no cut-off is given here.
# Key:
# [1] = tested on: A549; test: Antitumor activity against human A549 cells assessed as reduction in cell viability incubated for 72 hrs by CCK8 assay; format: functional, cell-based; conditions: A549, 72 h
# [2] = tested on: MDA-MB-231; test: Antitumor activity against human MDA-MB-231 cells assessed as reduction in cell viability incubated for 72 hrs by CCK8 assay; conditions: MDA-MB-231, 72 h
# [3] = tested on: MCF7; test: Antitumor activity against human MCF7 cells assessed as reduction in cell viability incubated for 72 hrs by CCK8 assay; format: functional, cell-based; conditions: MCF7, 72 h
# [4] = tested on: SK-OV-3; test: Antitumor activity against human SK-OV-3 cells assessed as reduction in cell viability incubated for 72 hrs by CCK8 assay; format: functional, cell-based; conditions: SK-OV-3, 72 h
# [5] = target: T1, Tubulin (Homo sapiens) (UniProt P68371+Q9H4B7+P0DPH7+P68366+Q13509+Q71U36+P04350+Q3ZCM7+P07437+P68363+Q9BQE3+Q6PEY2+Q13885+Q9BVA1+Q9BUF5); test: Inhibition of tubulin polymerization (unknown origin) assessed as increase in optical density at 340 nm at 10 uM; format: protein-complex assay
# [6] = target: T1, Tubulin (Homo sapiens); test: Inhibition of tubulin polymerization in human SK-OV-3 cells at 20 nM incubated for 18 hrs by Alexa Fluor 488 staining based confocal immunofluorescent microscopic analysis; format: cell-based
# [7] = tested on: SK-OV-3; test: Antitumor activity against human SK-OV-3 cells xenografted in female BALB/c nude mouse assessed as tumor growth inhibition at 10 mg/kg, […] via tail vein once every 2 to 3 days; format: functional; conditions: time 2-3 day, read-out: TGI
pIC50 [1],pIC50 [2],pIC50 [3],pIC50 [4],inhibition [5],SMILES,inhibition [6],inhibition in vivo at 10 mg/kg [7] [%]
7.71,7.59,7.93,8.17,–,CCCNc1nc(N2CCCc3cc(OC)ccc32)c2cc(F)ccc2n1,–,–
7.04,6.86,6.72,7.16,–,COc1ccc2c(c1)CCCN2c1nc(NCCOCCOCCO)nc2ccc(F)cc12,–,–
< 6.00,< 6.00,< 6.00,< 6.00,–,COc1ccc2c(c1)CCCN2c1nc(NC(C)(C)C)nc2ccc(F)cc12,–,–
< 6.00,< 6.00,< 6.00,< 6.00,–,COc1ccc2c(c1)CCCN2c1nc(NCCN(C)C)nc2ccc(F)cc12,–,–
< 6.00,< 6.00,< 6.00,< 6.00,–,COc1ccc2c(c1)CCCN2c1nc(N2CCN(C)CC2)nc2ccc(F)cc12,–,–
< 6.00,< 6.00,< 6.00,< 6.00,–,COc1ccc2c(c1)CCCN2c1nc(NC2CCCC2)nc2ccc(F)cc12,–,–
8.12,7.94,8.62,8.82,–,COc1ccc2c(c1)CCCN2c1nc(NC2CC2)nc2ccc(F)cc12,–,–
< 6.00,< 6.00,< 6.00,< 6.00,–,COc1ccc2c(c1)CCCN2c1nc(Cl)nc2ccc(C(F)(F)F)cc12,–,–
8.77,–,7.51,7.94,Active,CC(=O)O[C@H]1C(=O)[C@@]2(C)[C@H]([C@H](OC(=O)c3ccccc3)[C@]3(O)C[C@H](OC(=O)[C@H](O)[C@@H](NC(=O)c4ccccc4)c4ccccc4)C(C)=C1C3(C)C)[C@]1(OC(C)=O)CO[C@@H]1C[C@@H]2O [PACLITAXEL],Not active; Aggregated Into Bundle Like Filamentary Structure,39.1
< 6.00,< 6.00,< 6.00,< 6.00,–,COc1ccc(-c2nc(N3CCCc4cc(OC)ccc43)c3cc(F)ccc3n2)cc1,–,–
7.53,7.44,7.61,7.65,–,COc1ccc2c(c1)CCCN2c1nc(Cl)nc2ccc(F)cc12,–,–
< 6.00,< 6.00,< 6.00,< 6.00,–,COc1ccc(Nc2nc(N3CCCc4cc(OC)ccc43)c3cc(F)ccc3n2)cc1,–,–
< 6.00,< 6.00,< 6.00,< 6.00,–,COc1ccc2c(c1)CCCN2c1nc(NCc2ccccc2)nc2ccc(F)cc12,–,–
6.36,6.48,6.26,6.80,–,COc1ccc2c(c1)CCCN2c1nc(NCC(C)C)nc2ccc(F)cc12,–,–
7.29,7.44,7.62,7.50,–,COc1ccc2c(c1)CCCN2c1nc(NC2CCC2)nc2ccc(F)cc12,–,–
7.53,7.43,7.34,7.42,–,COc1ccc2c(c1)CCCN2c1nc(Cl)nc2ccc(C)cc12,–,–
7.19,7.34,7.45,7.35,–,COc1ccc2c(c1)CCCN2c1nc(N(C)C)nc2ccc(F)cc12,–,–
< 6.00,< 6.00,< 6.00,< 6.00,–,COc1ccc2c(c1)CCCN2c1nc(N2CCCC2)nc2ccc(F)cc12,–,–

pIC50 [1],pIC50 [2],pIC50 [3],pIC50 [4],inhibition [5],SMILES,inhibition [6],inhibition in vivo at 10 mg/kg [7] [%]
< 6.00,< 6.00,< 6.00,< 6.00,–,COc1ccc2c(c1)CCCN2c1nc(Cl)nc2ccc(OC(F)(F)F)cc12,–,–
< 6.00,< 6.00,< 6.00,< 6.00,–,COc1ccc2c(c1)CCCN2c1nc(NC2CCCCC2)nc2ccc(F)cc12,–,–
8.14,8.15,8.22,8.36,–,COc1ccc2c(c1)CCCN2c1nc(N)nc2ccc(F)cc12,–,–
7.17,7.61,7.43,7.40,–,COc1ccc2c(c1)CCCN2c1nc(Cl)nc2ccc(Cl)cc12,–,–
7.34,7.60,7.82,7.65,–,COc1ccc2c(c1)CCCN2c1nc(NC(C)C)nc2ccc(F)cc12,–,–
7.90,8.03,8.22,8.24,–,COc1ccc2c(c1)CCCN2c1nc(NCCCO)nc2ccc(F)cc12,–,–
7.16,7.21,7.33,7.59,–,CCCCNc1nc(N2CCCc3cc(OC)ccc32)c2cc(F)ccc2n1,–,–
7.27,7.24,7.22,7.50,–,COc1ccc2c(c1)CCCN2c1nc(N2CCOCC2)nc2ccc(F)cc12,–,–
6.50,6.49,6.26,6.80,–,COc1ccc2c(c1)CCCN2c1nc(Cl)nc2ccc(I)cc12,–,–
< 6.00,6.05,6.15,6.33,–,CCN(CC)c1nc(N2CCCc3cc(OC)ccc32)c2cc(F)ccc2n1,–,–
< 6.00,< 6.00,< 6.00,< 6.00,–,COc1ccc2c(c1)CCCN2c1nc(N2CCCCC2)nc2ccc(F)cc12,–,–
< 6.00,< 6.00,< 6.00,< 6.00,–,COc1ccc2c(c1)CCCN2c1nc(-c2cc(OC)c(OC)c(OC)c2)nc2ccc(F)cc12,–,–
7.82,7.18,7.17,7.20,–,COc1ccc2c(c1)CCCN2c1nc(Cl)nc2ccc(Br)cc12,–,–
8.02,8.09,8.42,8.31,–,CCNc1nc(N2CCCc3cc(OC)ccc32)c2cc(F)ccc2n1,–,–
7.64,7.80,7.75,8.47,–,COCCNc1nc(N2CCCc3cc(OC)ccc32)c2cc(F)ccc2n1,–,–
7.48,7.19,7.18,7.24,–,COc1ccc2c(c1)CCCN2c1nc(Cl)nc2ccc(OC)cc12,–,–
7.48,7.40,7.55,7.72,–,COCCCNc1nc(N2CCCc3cc(OC)ccc32)c2cc(F)ccc2n1,–,–

SMILES,pIC50 [1],pIC50 [2],pIC50 [3],pIC50 [4],inhibition [5],inhibition [6],inhibition in vivo at 10 mg/kg [7] [%]
COc1cc2c(c(OC)c1OC)-c1ccc(OC)c(=O)cc1[C@@H](NC(C)=O)CC2 [COLCHICINE],7.50,7.92,–,8.20,–,–,–
